The values below come from patent US20160008367A1, “Combination Comprising a Cyclin Dependent Kinase 4 or Cyclin Dependent Kinase (CDK4/6) Inhibitor for Treating Cancer” (Novartis AG, priority 2010, published 2016).

Structures are written as SMILES.

The subject of assay [1] is Jeko-1 mantle cell lymphoma cells. The experiment in a line: Cell Titer-Glo cell viability assay, single agents and combinations. Format: cell-based. The following applies: 72 hrs. On the procedure: The Cell Titer-Glo Luminscent Cell Viability Assay (Promega#G7572) generates a luminescent signal that is proportional to the number of metabolically active cells present in a reaction, based on the quantitation of ATP. Cell Titer-Glo Reagent was prepared by thawing a vial of Cell Titer-Glo Buffer in a 37° C. water bath. The entire bottle of buffer was then added to the bottle of lyophilized Cell Titer-Glo Substrate provided in the kit. Lyophilized substrate was allowed to dissolve; the solution was then mixed by inversion and was ready for use. Jeko-1 cells were diluted to a density of 200,000 cells/mL and cultured in T250 flask. Before treatment (time 0), 3×100 micro liter aliquots were removed and placed into a black 96 well plate with clear bottom (Costar#3904). 50 uL of CTG reagent was added to each well. The plate was placed on an Orbital Shaker, protected from light and incubated using setting 4 for 30 minutes at RT. The plate was then read using the Envision Luminometer, and results exported. The cells remaining in the T250 flasks were either left untreated or treated with single agents or in combinations. […] Results were exported and analyzed using Microsoft Excel. The percentage of viable cells as compared to control growth was calculated using following equation: […]
A is the CTG read under treatment condition
B is the CTG read for Time 0 cells
C is CTG read for 72 hr untreated cells […]
On the technique in general: ATP-based viability assays read luminescence as a measure of living cells.

The test system of a further assay is Jeko-1 xenograft. Description: Jeko-1 mantle cell lymphoma xenograft model. The format is in vivo. As to conditions: 35 day treatment period, single agents. The source says: A Jeko-1 xenograft model was used to measure anti-tumor activity in a 35 day treatment period of Compound A1, Compound B1, and the combination of Compounds A1 and B1. Significant anti-tumor activity was observed.

Assay [2] concerns PANC-1 pancreatic carcinomas. The experiment in a line: PANC-1 pancreatic carcinoma xenograft model. Format: in vivo, nude mice. The following applies: PANC-1 xenograft, po x 21 days. On the procedure:
The PANC-1 pancreatic carcinomas used for implantation were maintained by serial engraftment in nude mice. […] Tumor size, in mm3, was calculated from: Tumor Volume=(w2×l)/2 where w=width and l=length, in mm, of the tumor. […] Group 1 mice received the Compound A1 and Compound B1 vehicles, and served as controls for all analyses. […] Each animal was euthanized when tumor volume reached 1200 mm3, or on the last day of the study ([…]). For each animal whose tumor reached the endpoint volume, the time to endpoint (TTE) was calculated by the following equation: TTE=(log10(endpoint volume)-b)/m Where TTE is expressed in days, endpoint volume is in mm3, b is the intercept, and m is the slope of the line obtained by linear regression of a log-transformed tumor growth data set. […] The calculated TTE is usually less than the day on which an animal is euthanized for tumor size. […] Treatment efficacy was determined from tumor growth delay (TGD), which is defined as the increase in the median TTE for a treatment group compared with the control group: TGD=T-C, expressed in days, or as a percentage of the median TTE of the control group: % TGD=[(T-C)/C]×100, where: T=median TTE for a treatment group, C=median TTE for the designated control group.

On to `CN(C)C(=O)c1cc2cnc(Nc3ccc(N4CCNCC4)cn3)nc2n1C1CCCC1` [Compound A1, 7-Cyclopentyl-2-(5-piperazin-1-yl-pyridin-2-ylamino)-7H-pyrrolo[2,3-d]pyrimidine-6-carboxylic acid dimethylamide], for which the “% cell growth compared to the vehicle control” value in assay [1] (100 nM CDK4/6 inhibitor alone) is reported as 70%. Also, the anti-tumor activity result in the assay with Jeko-1 xenograft is “had anti-tumor activity”; in assay [2] (Compound A1 250 mg/kg qd) it was “neither Compound A1 nor Compound B1 had significant anti-tumor activity”.
For `COC1CC2CC[C@@H](C)C(O)(O2)C(=O)C(=O)N2CCCCC2C(=O)O[C@H](C(C)C[C@@H]2CCC(OCCO)[C@H](OC)C2)CC(=O)C(C)/C=C(\C)C(O)C(OC)C(=O)[C@H](C)CC(C)/C=C/C=C/C=C/1C` (stereo in doubt) [Compound B1, (1R,9S,12S,15R,16E,18R,19R,21R,23S,24E,26E,28E,30S,32S,35R)-1,18-dihydroxy-12-{(1R)-2-[(1S,3R,4R)-4-(2-hydroxyethoxy)-3-methoxycyclohexyl]-1-methylethyl}-19,30-dimethoxy-15,17,21,23,29,35-hexamethyl-11,36-dioxa-4-aza-tricyclo[30.3.1.04,9]hexatriaconta-16,24,26,28-tetraene-2,3,10,14,20-pentaone], the “% cell growth compared to the vehicle control” value in assay [1] (mTOR inhibitor alone at 1, 2.5 and 5 nM (all three concentrations)) is on record as “approximately 30%”. Also, the anti-tumor activity result with Jeko-1 xenograft is recorded as “had anti-tumor activity”; in assay [2] (Compound B1 10 mg/kg qd), “neither Compound A1 nor Compound B1 had significant anti-tumor activity”.
